The values below come from patent publication US6440468B1, “Method for obtaining apolar and polar extracts of curcuma and applications thereof” (A.S.A.C. Pharmaceutical International, A.I.E., priority 1994, dated 2002).

Structures are written as SMILES.

The series can be described thus: Thermal stability of curcuminoids in the apolar fraction. In kind it is physicochemical. Particulars: stabilized as of 24-48 hours of exposure. Here is the method: Initially, a greater degradation is produced which is stabilized as of 24-48 hours of exposure. Degradation is kept at 2% for temperatures lower than 50° C. and at 4% at 80° C.

As for `COc1cc(/C=C/C(=O)CC(=O)/C=C/c2ccc(O)c(OC)c2)ccc1O` [curcumin, curcumin (dipheruloylmethane)], the “thermal degradation of curcuminoids” value by setting is: (80° C) 4%; (temperatures lower than 50° C) 2%.
